In US20230310445A1, “LOX ENZYME INHIBITING METHODS AND COMPOSITIONS” (ANOVIA BIOSCIENCES, INC., priority 2020, published 2023):
Where two headings read alike, the source gives them in different places.

Assays:
[1] = biological target: T1, Recombinant human LOXL3 (lysyl oxidase like 3) (Homo sapiens, UniProt P58215); assay: LOXL3 inhibition assay (fluorometric, cadaverine/Amplex Red/HRP); type: biochemical; details: IC50 class; recombinant human LOXL3, cadaverine substrate; read-out: Activity Range LOXL3
T1 construct: purchased R&D systems
T1 sequence (P58215 26-753): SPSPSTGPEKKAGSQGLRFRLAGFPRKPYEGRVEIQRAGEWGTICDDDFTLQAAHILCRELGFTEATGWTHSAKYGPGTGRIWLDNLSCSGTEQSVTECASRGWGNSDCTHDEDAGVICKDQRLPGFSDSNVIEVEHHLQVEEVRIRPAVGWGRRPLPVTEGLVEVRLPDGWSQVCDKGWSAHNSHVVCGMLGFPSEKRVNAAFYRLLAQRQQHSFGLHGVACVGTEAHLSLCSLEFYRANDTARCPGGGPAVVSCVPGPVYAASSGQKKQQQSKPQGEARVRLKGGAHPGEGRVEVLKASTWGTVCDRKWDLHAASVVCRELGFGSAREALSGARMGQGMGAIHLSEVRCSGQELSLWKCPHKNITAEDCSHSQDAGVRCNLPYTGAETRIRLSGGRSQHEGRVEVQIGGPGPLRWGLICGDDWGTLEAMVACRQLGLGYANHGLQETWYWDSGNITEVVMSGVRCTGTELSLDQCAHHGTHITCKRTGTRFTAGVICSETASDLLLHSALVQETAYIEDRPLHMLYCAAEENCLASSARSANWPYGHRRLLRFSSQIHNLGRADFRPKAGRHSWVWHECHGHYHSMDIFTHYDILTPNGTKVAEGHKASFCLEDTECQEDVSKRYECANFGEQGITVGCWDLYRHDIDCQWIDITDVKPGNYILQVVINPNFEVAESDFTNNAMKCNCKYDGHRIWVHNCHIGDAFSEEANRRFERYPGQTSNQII
Description: The ability of compounds to inhibit one or more of the lysyl oxidases LOXL2 and/or LOXL3 was determined using a fluorometric assay. This assay measures the activity of lysyl oxidases by coupling the reaction with horseradish peroxidase-catalyzed […]. The activity assay protocol uses cadaverine as substrate that releases hydrogen peroxide upon transformation by the specific LOX family enzyme present in the sample. Hydrogen peroxide is in turn detected using a red fluorescence substrate for HRP-coupled reactions (Amplex Red Enzyme Assays, Thermo Scientific Fisher). This leads to increase in fluorescence that can be easily detected at Ex/Em=540/590 nm in a fluorescence microplate reader.
Enzymes: Recombinant human LOXL2 (lysyl oxidase like 2) and recombinant human LOXL3 (lysyl oxidase like 3) were purchased from R&D systems and assays were performed in 1.2 M urea, 50 mM sodium borate buffer pH 8.0, and 10 mM CaCl.
Reaction: Final concentration in the LOXL2 and LOXL3 assays were as following and performed in a total volume of […]:
Experimental procedure: 5 μl of freshly prepared reaction buffer were delivered to reaction wells. Compounds were resuspended in 100% DMSO at 10 mM and delivered into buffer using acoustic technology (Echo550; nanoliter range). A 3× solution of LOXL2 or LOXL3 in reaction buffer was prepared (“enzyme solution”) and 5 μL of enzyme solution was added into the reaction wells. Buffer only was added to column 1 for no protein control. Reactions were incubated for 30 minutes at 37° C. A 3×mixture of cadaverine, Amplex Red, and HRP (“Substrate/Detection Mix) was prepared and subsequently 5 μL of the mixture added to each reaction well. Progress of reactions was monitored for 60 minutes at 37° C. using Clariostar plate reader (ex 530-12, ems 600-40). For all activity assays, pan-LOX inhibitor CCT365623 (Tang et al, 2017) and LOXL2/LOXL3 inhibitor PAT-1251 (PharmaKea) were included as standards.
Data analysis: Slope of the linear portion of the progress curve was calculated using Clariostar software. Typical analysis interval was between 8-30 min, but varied between experiments. The background subtracted signals (No protein wells are considered as background) were converted to % activity relative to DMSO controls. Data was analyzed using GraphPad Prism 4 with “sigmoidal dose-response (variable slope)”; 4 parameters with Hill Slope. Constraints: Bottom=Constant equal to 0. Top=Must be less than 120.

[2] = Microsome stability study; type: in vitro ADME, mouse; details: for half-life at 2 μM / microsomal CLint at 2 μM / CLint scaled at 2 μM: CD-1, pH 7.4; for half-life at 2 μM / microsomal CLint at 2 μM: male mouse liver microsomes 0.5 mg/mL, NADPH; for CLint scaled at 2 μM: male, read-out: Scaled-up CLint; for CLint scaled at 2 μM / Predicted hepatic CL: mouse liver microsomes
Description: Pooled CD-1 mouse liver microsomes at 0.5 mg/mL were pre-incubated in phosphate buffer (100 mM, pH 7.4) containing 1 mM NADPH and 3 mM MgCl2 in a 96-well plate for 5 minutes at 37° C. Ultra-pure water was added instead of NADPH in the negative control group to exclude the misleading factor that resulted from instability of chemical itself. The reaction was initiated by adding test compound at the final concentration of 2 μM and incubated at 37° C. Aliquots were taken from the incubation at 0, 15, 30, 45 and 60 minutes followed by the addition of 4 volume of cold acetonitrile containing internal standards. Samples were centrifuged and supernatant was used for LC-MS/MS analysis.

[3] = Permeability study in Caco-2 cell line; type: in vitro ADME; details: human; for efflux ratio at 2 h, 5 μM: Caco-2, pH 7.4; for Papp A→B at 2 h, 5 μM: Caco-2, apical to basolateral; for Papp A→B at 2 h, 5 μM / Papp B→A at 2 h, 5 μM: pH 7.4; for Papp B→A at 2 h, 5 μM: Caco-2, basolateral to apical
Description: Caco-2 cell suspensions were dispensed into the inserts of the 96-well HTS Transwell plate and cultivated for 14-18 days. Transepithelial electrical resistance (TEER) across the monolayer was measured using Millicell Epithelial Volt-Ohm measuring system. The Caco-2 plate was then washed twice with pre-warmed HBSS (pH 7.4) and incubated at 37° C. for 30 minutes. To determine the rate of drug transport in the apical to basolateral direction. 5 μM test compound was added to the Transwell insert and the wells in the receiver plate were filled with HBSS (pH 7.4). To determine the rate of drug transport in the basolateral to apical direction, 5 μM test compound was added to the receiver plate wells and then the Transwell inserts were filled with HBSS (pH 7.4). The plates were incubated at 37° C. for 2 hours. 50 μL samples from donor sides and receiver sides were transferred to wells of a new 96-well plate followed by the addition of 4 volume of cold methanol containing internal standards (IS). Samples were centrifuged and the supernatant was used for LC-MS/MS analysis. After the incubation, residue solutions were removed from the Transwell plates, and Lucifer yellow (100 μM) solution was added to each Transwell insert, followed by filling the receiver wells with HBSS. The plates were incubated at 37° C. for 30 minutes. 80 μL samples were removed from the apical and basolateral wells and the fluorescence of Lucifer yellow was measured in a microplate reader with 485 nm excitation and 530 nm emission.

[4] = Caco-2, pH 7.4, Caco-2, apical to basolateral, read-out: Recovery (%)AP-BL
[5] = Caco-2, pH 7.4, Caco-2, basolateral to apical, read-out: Recovery (%)BL-AP

Compound	IC50 [1] [µM]	half-life at 2 μM [2] [h]	microsomal CLint at 2 μM [2] [µL/min/mg]	CLint scaled at 2 μM [2] [mL/min/kg]	Predicted hepatic CL [2] [mL/min/kg]	efflux ratio at 2 h, 5 μM [3]	recovery at 2 h, 5 μM [3, 4] [%]	recovery at 2 h, 5 μM [3, 5] [%]	Papp A→B at 2 h, 5 μM [3] [×10⁻⁶ cm/s]	Papp B→A at 2 h, 5 μM [3] [×10⁻⁶ cm/s]
NCc1ccnc(S(=O)(=O)N2C[C@@H](C(=O)N3CCS(=O)(=O)CC3)C[C@@H](C3CCCCC3)C2)c1.O=C(O)C(F)(F)F (racemic) [Example 146, cis-(1-((4-(Aminomethyl)pyridin-2-yl)sulfonyl)-5-cyclohexylpiperidin-3-yl)(1,1-dioxidothiomorpholino)methanone 2,2,2-trifluoroacetate]	≤ 0.5	0.533	43.3	190	61.03					
NCc1cccc(S(=O)(=O)N2C[C@@H](C(=O)N3CCOCC3)C[C@@H](C3CCCCC3)C2)c1 (racemic) [Example 139, cis-(1-((3-(Aminomethyl)phenyl)sulfonyl)-5-cyclohexylpiperidin-3-yl)(morpholino)methanone]	1 to 30									
CN(C)C(=O)[C@H]1C[C@@H](C2CCCCC2)CN(S(=O)(=O)c2cc(CN)ccn2)C1 (racemic) [Example 144, cis-1-((4-(Aminomethyl)pyridin-2-yl)sulfonyl)-5-cyclohexyl-N,N-dimethylpiperidine-3-carboxamide 2,2,2-trifluoroacetate]	≤ 0.5									
NCc1cccc(S(=O)(=O)N2C[C@H](C(=O)N3CCS(=O)(=O)CC3)C[C@@H](c3ccccc3)C2)c1 (racemic) [Example 85, trans-(1-((3-(Aminomethyl)phenyl)sulfonyl)-5-phenylpiperidin-3-yl)(1,1-dioxidothiomorpholino)methanone 2,2,2-trifluoroacetate]	1 to 30									
CS(=O)(=O)[C@H]1C[C@@H](S(=O)(=O)c2cccc(CN)c2)CN(c2ccccc2)C1 (racemic) [Example 23, cis-(3-((-5-(Methylsulfonyl)-1-phenylpiperidin-3-yl)sulfonyl)phenyl)methanamine]	1 to 30	4.49	5.14	22.5	18.00	61.4	86.5	103	0.38	23.3
CN(C)C(=O)N1C[C@@H](c2ccccc2)C[C@@H](S(=O)(=O)c2cccc(CN)c2)C1.O=C(O)C(F)(F)F (racemic) [Example 74, cis-3-((3-(Aminomethyl)phenyl)sulfonyl)-N,N-dimethyl-5-phenylpiperidine-1-carboxamide 2,2,2-trifluoroacetate]	1 to 30	1.89	12.2	53.6	33.58	47.1	77.4	90.8	0.71	33.3
NCc1ccnc(S(=O)(=O)N2C[C@@H](C(=O)N3CCOCC3)C[C@@H](C3CCCCC3)C2)c1 (racemic) [Example 145, cis-(1-((4-(Aminomethyl)pyridin-2-yl)sulfonyl)-5-cyclohexylpiperidin-3-yl)(morpholino)methanone 2,2,2-trifluoroacetate]	0.5 to 1									
